# Assay results taken from patent publication US4416884A, “Piperazinylbenzoheterocyclic compounds” (Otsuka Pharmaceutical Co., Ltd., priority 1978, dated 1983).
# Like-named read-outs stand apart in the source and are kept apart here.
# How the values were obtained:
# [1] = system: Yersinia enterocolitica 0-5; assay: antimicrobial activity, serial dilution method on agar plate; assay type: cell-based
# [2] = system: Aeromonas hydrophila IFO 12658; assay: antimicrobial activity on bacteria which cause infectious diseases in fish; assay type: cell-based
# Experimental: (§1) The antimicrobial activity of the following test compounds on various test organisms listed below was determined by the serial dilution method on agar plate (Heart Infusion agar produced by Difco Co.) (see CHEMOTHERAPY 22, pp. 1126-1128 (1974)), and the minimum inhibitory concentrations (mcg/ml) obtained are shown in Table 1 below.
# (§2) A sample of each test organism was prepared so that the population of the organism was 1×10^8 cells/ml (O.D. 660 mμ=0.07 to 0.16) and 1×10^6 cells/ml (which was obtained by diluting the above 1×10^8 cells/ml preparation).
# (§3) In the same manner as above, the antimicrobial activity of the following compounds on various test organisms which cause infectious diseases in fish was determined.
# [3] = system: Aeromonas hydrophila IFO 12981; assay: as above; assay type: cell-based
# Experimental: as §1, §2, §3
# [4] = system: Aeromonas salmonicida IFO 12659; assay: as above; assay type: cell-based
# Experimental: as §1, §2, §3
# [5] = system: Aeromonas salmonicida IFO 12718; assay: as above; assay type: cell-based
# Experimental: as §1, §2, §3
# [6] = system: Pseudomonas fluorescens IFO 12180; assay: as above; assay type: cell-based; conditions: IFO12180, read-out: Minimum Inhibitory Concentration
# Experimental: as §1, §2, §3
# [7] = system: Pseudomonas fluorescens IFO 12568; assay: as above; assay type: cell-based
# Experimental: as §1, §2, §3
# [8] = system: Vibrio anguillarum IFO 12710; assay: as above; assay type: cell-based
# Experimental: as §1, §2, §3
# [9] = system: Vibrio anguillarum IFO 13266; assay: as above; assay type: cell-based
# Experimental: as §1, §2, §3
# [10] = system: Test Organism 1 (Escherichia Coli NIHJ); assay: influence of the addition of horse serum on the MIC; assay type: cell-based
# [11] = system: Test Organism 2 (Escherichia Coli NIHJ JC-2 (IFO 12734)); assay: as above; assay type: cell-based
# [12] = system: Test Organism 17 (Pseudomonas putida IFO 13696); assay: as above; assay type: cell-based
# [13] = system: Test Organism 16 (Pseudomonas maltophilia IFO 12692); assay: as above; assay type: cell-based; conditions: Stenotrophomonas maltophilia
# [14] = system: Test Organism 21 (Bacillus subtilis PCI 219); assay: as above; assay type: cell-based
# [15] = system: Test Organism 27 (Streptococcus pneumoniae Type III); assay: as above; assay type: cell-based
# [16] = inactivation ratio by human serum protein; conditions: 3.1 mcg/ml, 37° C.
# Experimental: A 1/15 mol/l phosphate buffer was added to powder of Moni-Trol 1 (dehydrated preparation of human serum, a product of Midori Juji Co., Ltd.) to prepare a composition having the same serum protein concentration as natural human serum and this preparation was labeled "100% human serum", an aliquot of the "100% human serum" preparation was mixed with the same volume of the above buffer to prepare "50% human serum" and another aliquot was mixed with 4 times as much as its volume of the buffer to prepare "20% human serum".
# [17] = read-out: Minimum Inhibitory Concentration, horse serum 0%, inoculum 10^6
# [18] = read-out: Minimum Inhibitory Concentration, horse serum 0%, inoculum 10^8
# [19] = read-out: Minimum Inhibitory Concentration, horse serum 10%, inoculum 10^6
# [20] = read-out: Minimum Inhibitory Concentration, horse serum 10%, inoculum 10^8
# [21] = read-out: Minimum Inhibitory Concentration, horse serum 20%, inoculum 10^6
# [22] = read-out: Minimum Inhibitory Concentration, horse serum 20%, inoculum 10^8
# [23] = read-out: Minimum Inhibitory Concentration, horse serum 40%, inoculum 10^6
# [24] = read-out: Minimum Inhibitory Concentration, horse serum 40%, inoculum 10^8
structure (smiles),measurement,setting,value
CC1CCc2c(N3CCNCC3)ccc3c(=O)c(C(=O)O)cn1c23 (centres unmarked) [A],MIC,"[1]; Yersinia enterocolitica, 05, read-out: Minimum Inhibitory Concentration, inoculum 1 × 10^6 cells/ml",0.8 µg/mL
same,MIC,"[1]; Yersinia enterocolitica, 05, read-out: Minimum Inhibitory Concentration, inoculum 1 × 10^8 cells/ml",0.8 µg/mL
same,MIC,"[2]; IFO12658, inoculum 10^6, read-out: Minimum Inhibitory Concentration",0.1 µg/mL
same,MIC,"[2]; IFO12658, inoculum 10^8, read-out: Minimum Inhibitory Concentration",0.2 µg/mL
same,MIC,"[3]; IFO12981, inoculum 10^6, read-out: Minimum Inhibitory Concentration",0.2 µg/mL
same,MIC,"[3]; IFO12981, inoculum 10^8, read-out: Minimum Inhibitory Concentration",0.2 µg/mL
same,MIC,"[4]; IFO12659, inoculum 10^6, read-out: Minimum Inhibitory Concentration",0.2 µg/mL
same,MIC,"[4]; IFO12659, inoculum 10^8, read-out: Minimum Inhibitory Concentration",0.4 µg/mL
same,MIC,"[5]; IFO12718, inoculum 10^6, read-out: Minimum Inhibitory Concentration",0.2 µg/mL
same,MIC,"[5]; IFO12718, inoculum 10^8, read-out: Minimum Inhibitory Concentration",0.4 µg/mL
same,MIC,[6],3.1 µg/mL
same,MIC,"[7]; IFO12568, read-out: Minimum Inhibitory Concentration, inoculum 10^6",12.5 µg/mL
same,MIC,"[7]; IFO12568, read-out: Minimum Inhibitory Concentration, inoculum 10^8",25 µg/mL
same,MIC,"[8]; IFO12710, read-out: Minimum Inhibitory Concentration, inoculum 10^6",3.1 µg/mL
same,MIC,"[8]; IFO12710, read-out: Minimum Inhibitory Concentration, inoculum 10^8",3.1 µg/mL
same,MIC,"[9]; IFO13266, read-out: Minimum Inhibitory Concentration, inoculum 10^6",0.1 µg/mL
same,MIC,"[9]; IFO13266, read-out: Minimum Inhibitory Concentration, inoculum 10^8",0.2 µg/mL
same,MIC,[10]; [17],6.3 µg/mL
same,MIC,[10]; [18],6.3 µg/mL
same,MIC,[10]; [19],3.1 µg/mL
same,MIC,[10]; [20],6.3 µg/mL
same,MIC,[10]; [21],3.1 µg/mL
same,MIC,[10]; [22],3.1 µg/mL
same,MIC,[10]; [23],3.1 µg/mL
same,MIC,[10]; [24],3.1 µg/mL
same,MIC,[11]; [17],1.6 µg/mL
same,MIC,[11]; [18],1.6 µg/mL
same,MIC,[11]; [19],0.8 µg/mL
same,MIC,[11]; [20],0.8 µg/mL
same,MIC,[11]; [21],0.8 µg/mL
same,MIC,[11]; [22],0.8 µg/mL
same,MIC,[11]; [23],0.4 µg/mL
same,MIC,[11]; [24],0.4 µg/mL
same,MIC,"[12]; IFO13696, read-out: Minimum Inhibitory Concentration, horse serum 0%, inoculum 10^6",0.2 µg/mL
same,MIC,"[12]; IFO13696, read-out: Minimum Inhibitory Concentration, horse serum 0%, inoculum 10^8",0.4 µg/mL
same,MIC,"[12]; IFO13696, read-out: Minimum Inhibitory Concentration, horse serum 10%, inoculum 10^6",0.2 µg/mL
same,MIC,"[12]; IFO13696, read-out: Minimum Inhibitory Concentration, horse serum 10%, inoculum 10^8",0.2 µg/mL
same,MIC,"[12]; IFO13696, read-out: Minimum Inhibitory Concentration, horse serum 20%, inoculum 10^6",0.2 µg/mL
same,MIC,"[12]; IFO13696, read-out: Minimum Inhibitory Concentration, horse serum 20%, inoculum 10^8",0.2 µg/mL
same,MIC,"[12]; IFO13696, read-out: Minimum Inhibitory Concentration, horse serum 40%, inoculum 10^6",0.2 µg/mL
same,MIC,"[12]; IFO13696, read-out: Minimum Inhibitory Concentration, horse serum 40%, inoculum 10^8",0.2 µg/mL
same,MIC,"[13]; IFO12692, read-out: Minimum Inhibitory Concentration, horse serum 0%, inoculum 10^6",1.6 µg/mL
same,MIC,"[13]; IFO12692, read-out: Minimum Inhibitory Concentration, horse serum 0%, inoculum 10^8",3.1 µg/mL
same,MIC,"[13]; IFO12692, read-out: Minimum Inhibitory Concentration, horse serum 10%, inoculum 10^6",1.6 µg/mL
same,MIC,"[13]; IFO12692, read-out: Minimum Inhibitory Concentration, horse serum 10%, inoculum 10^8",1.6 µg/mL
same,MIC,"[13]; IFO12692, read-out: Minimum Inhibitory Concentration, horse serum 20%, inoculum 10^6",0.8 µg/mL
same,MIC,"[13]; IFO12692, read-out: Minimum Inhibitory Concentration, horse serum 20%, inoculum 10^8",0.8 µg/mL
same,MIC,"[13]; IFO12692, read-out: Minimum Inhibitory Concentration, horse serum 40%, inoculum 10^6",0.4 µg/mL
same,MIC,"[13]; IFO12692, read-out: Minimum Inhibitory Concentration, horse serum 40%, inoculum 10^8",0.8 µg/mL
same,MIC,[14]; [17],3.1 µg/mL
same,MIC,[14]; [18],6.3 µg/mL
same,MIC,[14]; [19],3.1 µg/mL
same,MIC,[14]; [20],3.1 µg/mL
same,MIC,[14]; [21],0.8 µg/mL
same,MIC,[14]; [22],1.6 µg/mL
same,MIC,[14]; [23],0.8 µg/mL
same,MIC,[14]; [24],0.8 µg/mL
same,MIC,[15]; [17],6.3 µg/mL
same,MIC,[15]; [18],12.5 µg/mL
same,MIC,[15]; [19],6.3 µg/mL
same,MIC,[15]; [20],6.3 µg/mL
same,MIC,[15]; [21],6.3 µg/mL
same,MIC,[15]; [22],6.3 µg/mL
same,MIC,[15]; [23],3.1 µg/mL
same,MIC,[15]; [24],6.3 µg/mL
same,fraction unbound at 2 h,[16]; 10% human serum,0.918
same,fraction unbound at 2 h,[16]; 20% human serum,1
same,fraction unbound at 2 h,[16]; 100% human serum,1
